Measurements reported in patent US20250230193A1, “CYCLIC COMPOUND HAVING SELECTIVE KRAS INHIBITORY EFFECT ON HRAS AND NRAS” (CHUGAI SEIYAKU KABUSHIKI KAISHA, priority 2022, published 2025).
*1 amine or outer side, *2 acyl side, *3 side chain or, on linkers, in order; H or OH if unused. Where a SMILES comes first, the peptide text is derived from it. Bridges are numbered along the chain shown (N, C = ends). [ ]: non-standard residue; d: D form. The star is where a group is joined. hPhe(3,5-F2-4-CF3) = N[C@@H](CCc1cc(F)c(C(F)(F)F)c(F)c1)C(=O)O; hPhe(3-Cl-4-CF3) = N[C@@H](CCc1ccc(C(F)(F)F)c(Cl)c1)C(=O)O; X11 = C=CCN([C@@H](Cc1ccc(C(F)(F)F)cc1)C(=O)[*:2])[*:1]; NPrPhe(4-CF3) = CCCN[C@@H](Cc1ccc(C(F)(F)F)cc1)C(=O)O; NMeGly(cPent) = CN[C@H](C(=O)O)C1CCCC1; NMeD = CN[C@@H](CC(=O)O)C(=O)O; Ac4c(3-oxa) = NC1(C(=O)O)COC1; NMeL = CN[C@@H](CC(C)C)C(=O)O; Morpholide = C1CN(*)CCO1; dNMeA = CN[C@H](C)C(=O)O; Ac5c = NC1(C(=O)O)CCCC1; Sar = CNCC(=O)O

Key:
[1] = molecular target: GDP-bound NRAS wild-type protein (Homo sapiens, UniProt P01111); assay: Binding to NRAS by surface plasmon resonance (SPR), Single Cycle Kinetics; conditions: for NRAS/KRAS (ratio of KD value with respect to NRAS to KD value with respect to KRAS): GDP-bound NRAS wild-type vs GDP-bound KRAS wild-type
[2] = molecular target: GDP-bound HRAS wild-type protein (Homo sapiens, UniProt P01112); assay: Binding to HRAS by surface plasmon resonance (SPR), Single Cycle Kinetics; conditions: for HRAS/KRAS (ratio of KD value with respect to HRAS to KD value with respect to KRAS): GDP-bound HRAS wild-type vs GDP-bound KRAS wild-type
Chain of GDP-bound HRAS wild-type protein (P01112 whole entry): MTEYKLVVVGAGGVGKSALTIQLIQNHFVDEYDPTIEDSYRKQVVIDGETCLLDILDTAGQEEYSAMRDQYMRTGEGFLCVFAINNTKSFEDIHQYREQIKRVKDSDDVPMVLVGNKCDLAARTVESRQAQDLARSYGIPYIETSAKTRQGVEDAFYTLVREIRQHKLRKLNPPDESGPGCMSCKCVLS

Chain of GDP-bound NRAS wild-type protein (P01111 whole entry): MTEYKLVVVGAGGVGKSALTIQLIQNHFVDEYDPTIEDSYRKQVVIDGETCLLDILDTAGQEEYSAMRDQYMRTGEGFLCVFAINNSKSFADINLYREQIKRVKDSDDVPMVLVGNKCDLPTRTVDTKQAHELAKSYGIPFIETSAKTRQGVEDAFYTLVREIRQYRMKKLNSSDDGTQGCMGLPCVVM

## CCCN1C(=O)CN(C)C(=O)CN(C)C(=O)[C@H]([C@@H](C)CC)NC(=O)[C@H](CC(C)C)N(C)C(=O)C[C@@H](C(=O)N2CCOCC2)N(C)C(=O)[C@H](C2CCCC2)N(C)C(=O)C2(CCCC2)NC(=O)[C@@H]2CCCN2C(=O)[C@H](CCc2ccc(C(F)(F)F)c(Cl)c2)NC(=O)[C@@H](C)N(C)C(=O)[C@@H]1Cc1ccc(C(F)(F)F)cc1 [PP0148] ([NMeL]I[Sar][Sar][NPrPhe(4-CF3)][dNMeA][hPhe(3-Cl-4-CF3)]P[Ac5c][NMeGly(cPent)][NMeD]-Morpholide; lactam N-11)
[1]; SPR
  NRAS/KRAS (ratio of KD for GDP-bound NRAS wild-type to KD for KRAS): B (a compound having 3 or more and less than 10 is denoted as B)
[2]; SPR
  HRAS/KRAS (ratio of KD for GDP-bound HRAS wild-type to KD for KRAS): B (a compound having 3 or more and less than 10 is denoted as B)

## CCCN1C(=O)CN(C)C(=O)CN(C)C(=O)[C@H]([C@@H](C)CC)NC(=O)[C@H](CC(C)C)N(C)C(=O)C[C@@H](C(=O)N(C)C)N(C)C(=O)[C@H](C2CCCC2)N(C)C(=O)C2(COC2)NC(=O)[C@@H]2CCCN2C(=O)[C@H](CCc2cc(F)c(C(F)(F)F)c(F)c2)NC(=O)CN(C)C(=O)[C@@H]1Cc1ccc(C(F)(F)F)cc1 [PP0744] ([NMeL]I[Sar][Sar][NPrPhe(4-CF3)][Sar][hPhe(3,5-F2-4-CF3)]P[Ac4c(3-oxa)][NMeGly(cPent)][NMeD]-NMe2; lactam N-11)
[1]; SPR
  NRAS/KRAS (ratio of KD value with respect to GDP-bound NRAS wild-type protein to KD value with respect to KRAS): B (a compound having 3 or more and less than 10 is denoted as B)
[2]; SPR
  HRAS/KRAS (ratio of KD value with respect to GDP-bound HRAS wild-type protein to KD value with respect to KRAS): B (a compound having 3 or more and less than 10 is denoted as B)

## CCC(CC)[C@H]1C(=O)N(C)[C@H](C(=O)N(C)C)CC(=O)N(C)[C@@H](COC)C(=O)N[C@@H]([C@@H](C)CC)C(=O)N2CCC[C@H]2C(=O)N(C)[C@H]2C/C=C\CCN(C2=O)[C@@H](Cc2ccc(C(F)(F)F)cc2)C(=O)N(C)CC(=O)N[C@@H](CCc2ccc(Cl)c(Cl)c2)C(=O)N2C[C@H](OC3CCCC3)C[C@H]2C(=O)NC2(CC(C)(C)C2)C(=O)N1C [PP2651]
[1]; class symbols
  NRAS/KRAS (ratio of KD value with respect to GDP-bound NRAS wild-type protein to KD value with respect to KRAS): AA (a compound having 20 or more is denoted as AA)
[2]; class symbols
  HRAS/KRAS (ratio of KD value with respect to GDP-bound HRAS wild-type protein to KD value with respect to KRAS): A (a compound having 10 or more and less than 20 is denoted as A)

## CCC[C@H]1C(=O)N[C@@H]([C@@H](C)CC)C(=O)N(C)CC(=O)N(C)[C@H]2C/C=C\CCN(C2=O)[C@@H](Cc2ccc(C)cc2)C(=O)N(C)CC(=O)N[C@@H](CCc2ccc(Cl)c(Cl)c2)C(=O)N2C[C@H](OCC)C[C@H]2C(=O)NC2(CC(C)(C)C2)C(=O)N(C)[C@@H](CC(C)(C)C)C(=O)N(C)[C@H](C(=O)N(C)C)CC(=O)N1C [PP2714]
[1]; class symbols
  NRAS/KRAS (ratio of KD value with respect to GDP-bound NRAS wild-type protein to KD value with respect to KRAS): A (a compound having 10 or more and less than 20 is denoted as A)
[2]; class symbols
  HRAS/KRAS (ratio of KD value with respect to GDP-bound HRAS wild-type protein to KD value with respect to KRAS): A (a compound having 10 or more and less than 20 is denoted as A)

## C#CCN1CC(=O)N(C)[C@H]2C/C=C\CCN(C2=O)[C@@H](Cc2ccc(C)cc2)C(=O)N(C)CC(=O)N[C@@H](CCc2cc(F)c(C(F)(F)F)c(F)c2)C(=O)N2C[C@H](OCC)C[C@H]2C(=O)NC2(CC(C)(C)C2)C(=O)N(C)[C@@H](C2CCCC2)C(=O)N(C)[C@H](C(=O)N(C)C)CC(=O)N(C)[C@@H](CCC)C(=O)N[C@@H]([C@@H](C)CC)C1=O [PP2095]
[1]; SPR
  NRAS/KRAS (ratio of KD value with respect to NRAS to KD value with respect to KRAS): A (a compound having 10 or more and less than 20 is denoted as A)
[2]; SPR
  HRAS/KRAS (ratio of KD value with respect to HRAS to KD value with respect to KRAS): A (a compound having 10 or more and less than 20 is denoted as A)

## CCCOC[C@H]1C(=O)N[C@@H]([C@@H](C)CC)C(=O)N(C)CC(=O)N(C)[C@H]2C/C=C\CCN(C2=O)[C@@H](CC2CCC(F)(F)CC2)C(=O)N(C)CC(=O)N[C@@H](CCc2cc(F)c(C(F)(F)F)c(F)c2)C(=O)N2C[C@H](OCC)C[C@H]2C(=O)NC2(CC(C)(C)C2)C(=O)N(C)[C@@H](C(CC)CC)C(=O)N(C)[C@H](C(=O)N(C)C)CC(=O)N1C [PP2472]
[1]; SPR
  NRAS/KRAS (ratio of KD value with respect to NRAS to KD value with respect to KRAS): A (a compound having 10 or more and less than 20 is denoted as A)
[2]; SPR
  HRAS/KRAS (ratio of KD value with respect to HRAS to KD value with respect to KRAS): A (a compound having 10 or more and less than 20 is denoted as A)

## C=CCN1C(=O)CN(C)C(=O)CN(C)C(=O)[C@H]([C@@H](C)CC)NC(=O)[C@H](CC(C)C)N(C)C(=O)C[C@@H](C(=O)N2CCOCC2)N(C)C(=O)[C@H](C2CCCC2)N(C)C(=O)C2(CCCC2)NC(=O)[C@@H]2CCCN2C(=O)[C@H](CCc2ccc(C(F)(F)F)c(Cl)c2)NC(=O)CN(C)C(=O)[C@@H]1Cc1ccc(C(F)(F)F)cc1 [PP0128] ([NMeL]I[Sar][Sar][X11][Sar][hPhe(3-Cl-4-CF3)]P[Ac5c][NMeGly(cPent)][NMeD]-Morpholide; lactam N-11)
[1]; SPR
  NRAS/KRAS (ratio of KD for GDP-bound NRAS wild-type to KD for KRAS): C (A compound having a KD ratio of 0.1 or more and less than 3 is denoted as C)
[2]; SPR
  HRAS/KRAS (ratio of KD for GDP-bound HRAS wild-type to KD for KRAS): C (A compound having a KD ratio of 0.1 or more and less than 3 is denoted as C)
